Measured values: patent US20260191933A1, “PHARMACEUTICAL COMBINATIONS AND USES THEREOF” (The University of Melbourne, priority 2022, published 2026)

How the values were obtained:
[1] = test system: 12-week HFHS fed obese mice; experiment: Example 21: 14-day treatment and off-treatment phase, weight rebound, body composition, metabolic rate, food intake; format: in vivo, C57BL/6J male mice
Description: To induce diet-induced obesity in adulthood, the mice were ad libitum access to water and high-fat-high-sugar (HFHS) diet (43% of total energy from fat, SF04-001, Speciality Feeds, Australia) starting at eight weeks of age for 12 weeks. Aged-matched chow-fed C57BL/6J male mice were ad libitum access to standard chow diet throughout full duration of the experiment.
Mice adiposity and lean mass were measured via the TD-NMR minispec (Bruker Optics Inc., USA) acquiring EchoMRI-900 Body Composition Analyser (EchoMRI LLC, USA). Interscapular brown adipose tissue, inguinal and epidermal white adipose tissues and the liver were weighed to determine tissue-specific adiposity.
At day 15, treatments were discontinued however all groups continued to receive ad libitum access to HFHS diet to assess the rebound following treatment cessation.

[2] = test system: 12-week HFHS fed obese mice; experiment: I.C.V. fluorosamine in obese mice: body weight, adiposity, energy expenditure, food intake; format: in vivo, C57BL/6J mice; conditions: I.C.V. for 10 days
Description: Metabolic measurements were undertaken in the Melbourne Mouse Metabolic Phenotyping Platform (The University of Melbourne, Australia). Glucose tolerance tests were performed on 6 h fasted conscious mice respectively by injecting D-glucose (2 mg/g of lean body mass and 1 mg/g lean mass for db/db and HFHS+STZ mice) into the peritoneal cavity and measuring glucose in tail blood immediately before and at 15, 30, 45, 60, 90 and 120 min after injection using an Accu-Check glucometer (Roche, Germany). The areas under glucose excursion curves were determined and expressed as mmol/l×min. Fasted (12 h fast) plasma insulin or glucose levels were determined using a Rat/Mouse Insulin ELISA (EZRMI-13K, Merck Millipore, CA) or an Accu-Check glucometer respectively. The HOMA-IR was calculated using the equation [(glucose×insulin)/405]. Adiposity was measured using TD-NMR minispec (Bruker Optics Inc., Billerica, MA).
Mice were acclimated for 24 h and then monitored for 48 h in an environmentally controlled Promethion Metabolic Screening System (Sable Systems International, NV) fitted with indirect open circuit calorimetry, food consumption and activity monitors to measure activity, caloric intake and energy expenditure. Respiratory quotients were calculated as the ratio of CO2 production over O2 consumption respiratory exchange ratio and energy expenditure was calculated using the Weir equation (Kcal h−1=60×(0.003941×VO2+0.001106×VCO2). To account for difference in body mass/composition energy expenditure was analysed and adjusted using ANCOVA using scripts available at the National Mouse Metabolic Phenotyping Centers (MMPC, Nashville, TN, USA) Energy Expenditure Analysis Page (https://www.mmpc.org/shared/regression.aspx).
Under isoflurane anaesthetic 12-week HFHS fed C57BL/6J or AgRP-Cas9 mice were implanted stereotaxically with guide cannulas into the right lateral ventricle (0.2 mm posterior, 1.0 mm lateral from bregma). Guide cannula was positioned 1.3 mm above the injection site (1 mm ventral to the surface of the skull). AgRP-Cas9 mice were treated with either AAV-gScrambled or AAV-gIR and underwent guide cannula placement 7 days post AAV administration. Mice were administered I.C.V. vehicle (ddH2O), fluorosamine (100 μg/animal/day or 250 μgl/animal/day) in a volume of 2 μl/animal and all compounds were delivered approximately 1 h before lights off (7 pm).

[3] = test system: HFHS plus low dose STZ mice; experiment: I.C.V. fluorosamine in late-stage type-2 diabetes model (HFHS plus low dose streptozotocin); format: in vivo, C57BL/6J mice; conditions: I.C.V. for 14 days
Description: Mice were maintained on a 12 h light-dark cycle in a temperature-controlled high-barrier facility with free access to food and water per NHMRC Australian Code of Practice for the Care and Use of Animals. C57BL/6J and Balb/C mice were sourced from the Animal Resources Centre, Australian, whereas Agrp-IRES-Cre (Strain #:012899), db/db (strain #: 000697), Npy-GFP (Strain #:006417), Pomc-GFP (Strain #:009593), LSL-Cas9 (Strain #:028551), NZO (Strain #:002105) mice were sourced from Jackson Laboratories, USA. […]
Metabolic measurements were undertaken in the Melbourne Mouse Metabolic Phenotyping Platform (The University of Melbourne, Australia). […] The areas under glucose excursion curves were determined and expressed as mmol/l×min. Fasted (12 h fast) plasma insulin or glucose levels were determined using a Rat/Mouse Insulin ELISA (EZRMI-13K, Merck Millipore, CA) or an Accu-Check glucometer respectively. The HOMA-IR was calculated using the equation [(glucose×insulin)/405]. Adiposity was measured using TD-NMR minispec (Bruker Optics Inc., Billerica, MA). […]

[4] = test system: 12-week HFHS fed obese mice; experiment: Example 21: glycaemic control in treatment and off-treatment phase (GTT, ITT, fasting glucose); format: in vivo, C57BL/6J male mice; conditions: treatment phase
From the text: Under 2-5% (v/v) isoflurane in 1 L/min oxygen, 12-week-HFHS-diet-fed and aged-matched chow-fed C57BL/6J male mice were implanted stereotaxically with guide cannulas in the right lateral ventricle (measurement of the coordinates were described as Chapter 2; Anterior/Posterior: −1.00 mm, Medial/Lateral: +0.20 mm). Guide cannulas were made by polishing the shaft of hypodermic needles (19 Gauge, Livingstone, Australia) to 1.00 mm long. The tip of the guide cannula was positioned 1.00 mm above the target region (1.00 mm ventral to the surface of the mouse skull). The mice were allowed 2-3 days for recovery before further experimental manipulations.
Awake 12-week-HFHS-diet-fed and aged-matched chow-fed C57BL/6J male mice were restrained by scruffing and inverted in the head-down position. […]
Glucose tolerance test was conducted on 6-hrs fasted conscious mice by injecting D-glucose (2 mg/g of lean body mass) into the peritoneal cavity and measuring blood glucose levels by taking tail blood immediately at 0, 15, 30, 60, 90 and 120 mins after injection using an Accu-Check glucometer (Roche, Germany). The area under the glucose excursion curve was determined and represented as mmol/L×min. Fasted (24 hr fast) glucose level was measured using an Accu-Check glucometer. […]

CC(=O)NC1C(OC(C)=O)OC(COC(C)=O)[C@@H](F)C1OC(C)=O (some centres unmarked) [PZ6005, per-O-acetylated-4-F-N-acetylglucosamine]
baseline fat mass, without affecting lean mass ([1]; 14 days after terminating treatments, compared to vehicle and liraglutide alone): significant decrease
mean weight loss from baseline (day 0) ([1]; day 14, PZ6005 100 μg/animal I.C.V. every second day, liraglutide 200 μg/kg daily): 15.08±1.45%
liver mass ([1]; end of experiment, vs other littermates): lower liver mass
day of return to baseline body weight ([1]; off-treatment phase): 30.00 ± 1.72 days
oxygen consumption and whole-body energy expenditure ([1]; treatment phase, without effects on ambulatory activity): elevated
adiposity [2]: reduced adiposity
body weight [2]: promoted weight loss
energy expenditure ([2]; independently of ambulatory activity): enhanced energy expenditure
food intake ([2]; through enhanced satiety): supressed food intake
remission of metabolic disease (daily blood glucose, glucose tolerance) [3]: promote the remission of metabolic disease
glucose tolerance / glycaemic regulation [4]: improved glucose tolerance
